According to patent publication US20240158370A1, “CK1 alpha AND DUAL CK1 alpha / GSPT1 DEGRADING COMPOUNDS” (Innovo Therapeutics, Inc., priority 2022, published 2024):

Key:
CK1α = target: T1, CK1α (Homo sapiens, UniProt P48729+Q96SW2); assay: HiBiT degradation assay, CK1α, Procedure A; assay type: cell-based; conditions: six hours incubation
T1 construct: CSNK1A1-HiBit KI HEK293(LgBit) Cells; host or cells: HEK293(LgBit) knock-in cells
Method in brief: (§1)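 Luminescence from HiBiT lytic detection, read after 20 min shaking, gave DC50 and Ymin by 4-parameter fit. Before that, cells (1×10^6 cells/ml, DMEM+10% FBS) sat 6 h at 37° C on 10-point compound series (10 μM–0.005 μM, 0.1% DMSO).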

GSPT1 = GSPT1 (Homo sapiens, UniProt P15170+Q96SW2); assay: HiBiT degradation assay, GSPT1, Procedure A; assay type: cell-based; parameters: HiBit-GSPT1 KI HEK293(LgBit) Cells; host or cells: HEK293(LgBit) knock-in cells; conditions: six hours incubation
Sequence of GSPT1 (P15170 whole entry): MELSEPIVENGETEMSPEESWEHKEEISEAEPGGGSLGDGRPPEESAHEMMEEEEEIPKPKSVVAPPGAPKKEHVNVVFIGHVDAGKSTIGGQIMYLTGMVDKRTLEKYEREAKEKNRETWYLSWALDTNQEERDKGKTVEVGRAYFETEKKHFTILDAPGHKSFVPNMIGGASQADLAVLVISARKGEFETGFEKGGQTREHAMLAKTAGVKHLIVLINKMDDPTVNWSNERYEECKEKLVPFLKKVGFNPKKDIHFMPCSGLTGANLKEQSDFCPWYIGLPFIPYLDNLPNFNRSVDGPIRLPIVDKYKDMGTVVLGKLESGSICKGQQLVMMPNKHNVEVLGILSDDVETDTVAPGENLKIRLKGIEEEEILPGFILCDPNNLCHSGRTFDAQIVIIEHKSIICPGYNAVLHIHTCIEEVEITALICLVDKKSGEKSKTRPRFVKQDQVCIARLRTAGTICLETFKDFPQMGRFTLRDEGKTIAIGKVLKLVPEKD
Sequence of GSPT1 (Q96SW2 whole entry): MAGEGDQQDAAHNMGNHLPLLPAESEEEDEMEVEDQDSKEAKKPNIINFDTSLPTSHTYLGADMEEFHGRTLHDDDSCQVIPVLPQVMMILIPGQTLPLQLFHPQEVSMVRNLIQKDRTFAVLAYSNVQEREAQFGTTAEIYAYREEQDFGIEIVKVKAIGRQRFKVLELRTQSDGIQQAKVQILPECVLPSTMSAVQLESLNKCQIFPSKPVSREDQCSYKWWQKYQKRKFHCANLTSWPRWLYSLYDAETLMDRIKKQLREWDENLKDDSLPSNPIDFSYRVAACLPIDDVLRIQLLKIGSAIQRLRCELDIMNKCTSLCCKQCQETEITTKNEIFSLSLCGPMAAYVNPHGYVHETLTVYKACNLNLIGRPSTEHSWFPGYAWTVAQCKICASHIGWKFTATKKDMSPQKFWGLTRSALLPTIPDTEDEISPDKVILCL
Sequence of GSPT1 (Q16531 whole entry partner): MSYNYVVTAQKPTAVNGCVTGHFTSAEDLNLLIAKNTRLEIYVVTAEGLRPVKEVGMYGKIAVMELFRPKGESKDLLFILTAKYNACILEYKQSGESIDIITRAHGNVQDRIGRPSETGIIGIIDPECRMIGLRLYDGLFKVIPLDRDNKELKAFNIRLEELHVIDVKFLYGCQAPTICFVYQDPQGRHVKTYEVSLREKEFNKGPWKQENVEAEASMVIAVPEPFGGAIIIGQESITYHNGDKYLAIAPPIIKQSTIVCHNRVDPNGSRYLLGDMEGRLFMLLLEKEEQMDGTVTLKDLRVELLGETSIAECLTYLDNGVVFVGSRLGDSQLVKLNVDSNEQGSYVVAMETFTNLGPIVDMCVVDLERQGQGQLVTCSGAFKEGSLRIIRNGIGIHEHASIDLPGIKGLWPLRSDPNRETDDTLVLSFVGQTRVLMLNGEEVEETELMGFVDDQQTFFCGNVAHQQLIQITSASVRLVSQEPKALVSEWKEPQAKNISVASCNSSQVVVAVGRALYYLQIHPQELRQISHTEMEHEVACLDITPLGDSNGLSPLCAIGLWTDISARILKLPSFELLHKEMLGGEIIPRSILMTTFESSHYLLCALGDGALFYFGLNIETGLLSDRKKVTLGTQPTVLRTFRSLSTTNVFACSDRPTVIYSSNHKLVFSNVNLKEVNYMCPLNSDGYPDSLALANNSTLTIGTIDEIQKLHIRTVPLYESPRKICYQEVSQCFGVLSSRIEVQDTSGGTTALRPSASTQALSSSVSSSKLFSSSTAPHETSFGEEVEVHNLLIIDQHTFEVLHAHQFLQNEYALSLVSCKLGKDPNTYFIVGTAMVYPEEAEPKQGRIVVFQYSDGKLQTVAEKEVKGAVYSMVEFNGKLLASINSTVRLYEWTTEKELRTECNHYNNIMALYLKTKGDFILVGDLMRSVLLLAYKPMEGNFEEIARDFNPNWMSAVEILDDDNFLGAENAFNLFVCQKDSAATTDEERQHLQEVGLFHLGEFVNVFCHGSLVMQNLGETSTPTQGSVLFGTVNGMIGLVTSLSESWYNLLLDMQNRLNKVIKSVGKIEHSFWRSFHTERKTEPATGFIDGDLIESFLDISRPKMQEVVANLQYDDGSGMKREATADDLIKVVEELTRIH
Method in brief: as §1

T1 sequence (P48729 whole entry): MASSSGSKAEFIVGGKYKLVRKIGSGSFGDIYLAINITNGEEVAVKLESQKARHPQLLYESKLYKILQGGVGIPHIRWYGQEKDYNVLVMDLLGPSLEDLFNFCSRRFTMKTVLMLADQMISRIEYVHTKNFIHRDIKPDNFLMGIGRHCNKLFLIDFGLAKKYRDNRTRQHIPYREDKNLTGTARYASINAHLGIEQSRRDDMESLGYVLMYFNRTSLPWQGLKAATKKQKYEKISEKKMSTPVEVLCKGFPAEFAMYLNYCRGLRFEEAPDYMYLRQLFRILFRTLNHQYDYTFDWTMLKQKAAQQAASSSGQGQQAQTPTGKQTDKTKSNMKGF
T1 sequence (Q96SW2 whole entry): as the sequence (Q96SW2 whole entry) above
T1 sequence (Q16531 whole entry partner): as the sequence (Q16531 whole entry partner) above

| Compound | CK1α Ymin (CK1α) | DC50 (CK1α) | DC50 (GSPT1) | GSPT1 Ymin (GSPT1) |
| --- | --- | --- | --- | --- |
| Cn1cnc(-c2ccc3c(c2)CN(C2CCC(=O)NC2=O)C3=O)c1-c1ccc(C(F)F)cc1 (stereo not shown) [Example 203] | D (D = >10- 25% remaining) | < 25 nM | ≥ 25 nM | E (E = >25-75% remaining) |
| Cn1cnc(-c2ccc3c(c2)CN(C2CCC(=O)NC2=O)C3=O)c1-c1cc(F)cc(Cl)c1 (stereo not shown) [Example 204] | E (E = >25-75% remaining) | < 25 nM | ≥ 25 nM | F (F = >75-100% remaining) |
| O=C1CCC(N2Cc3cc(-c4cncn4-c4ccccc4)ccc3C2=O)C(=O)N1 (stereo not shown) [Example 205, 3-(1-Oxo-5-(1-phenyl-1H-imidazol-5-yl)isoindolin-2-yl)piperidine-2,6-dione] | E (E = >25-75% remaining) | < 25 nM | ≥ 25 nM | F (F = >75-100% remaining) |
| O=C1CCC(N2Cc3cc(-c4conc4-c4ccccc4)ccc3C2=O)C(=O)N1 (stereo not shown) [Example 206, 3-(1-Oxo-5-(3-phenylisoxazol-4-yl)isoindolin-2-yl)piperidine-2,6-dione] | E (E = >25-75% remaining) | ≥ 25 nM | ≥ 25 nM | F (F = >75-100% remaining) |
| [2H]C([2H])([2H])n1ncc(-c2ccc3c(c2)CN(C2CCC(=O)NC2=O)C3=O)c1-c1ccccc1 (stereo not shown) [Example 207, 3-(5-(1-(Methyl-d3)-5-phenyl-1H-pyrazol-4-yl)-1-oxoisoindolin-2-yl)piperidine-2,6-dione] | D (D = >10- 25% remaining) | < 25 nM | ≥ 25 nM | F (F = >75-100% remaining) |
| O=C1CCC(N2Cc3cc(-c4cnn(CC(F)(F)F)c4-c4ccccc4)ccc3C2=O)C(=O)N1 (stereo not shown) [Example 208, 3-(1-Oxo-5-(5-phenyl-1-(2,2,2-trifluoroethyl)-1H-pyrazol-4-yl)isoindolin-2-yl)piperidine-2,6-dione] | D (D = >10- 25% remaining) | < 25 nM | ≥ 25 nM | F (F = >75-100% remaining) |
| Cn1cc(-c2ccc3c(c2)CN(C2CCC(=O)NC2=O)C3=O)nc1-c1ccc(C(F)(F)F)cc1 (stereo not shown) [Example 209, 3-(5-(1-methyl-2-(4-(trifluoromethyl)phenyl)-1H-imidazol-4-yl)-1-oxoisoindolin-2-yl)piperidine-2,6-dione] | C (C = 0-10% remaining) | < 25 nM | ≥ 25 nM | F (F = >75-100% remaining) |
| O=C1CCC(N2Cc3cc(-c4cc(-c5ccccc5)[nH]n4)ccc3C2=O)C(=O)N1 (stereo not shown) [Example 210, 3-(1-Oxo-5-(5-phenyl-1H-pyrazol-3-yl)isoindolin-2-yl)piperidine-2,6-dione] | D (D = >10- 25% remaining) | < 25 nM | ≥ 25 nM | F (F = >75-100% remaining) |
| Cc1c(-c2ccc3c(c2)CN(C2CCC(=O)NC2=O)C3=O)nn(C)c1-c1ccccc1 (stereo not shown) [Example 211, 3-(5-(1,4-Dimethyl-5-phenyl-1H-pyrazol-3-yl)-1-oxoisoindolin-2-yl)piperidine-2,6-dione] | C (C = 0-10% remaining) | < 25 nM | ≥ 25 nM | F (F = >75-100% remaining) |
| Cc1cc(-c2c(-c3ccc4c(c3)CN(C3CCC(=O)NC3=O)C4=O)cnn2C)c(C)s1 (stereo not shown) [Example 213] | E (E = >25-75% remaining) | < 25 nM | ≥ 25 nM | F (F = >75-100% remaining) |
| Cn1ncc(-c2ccc3c(c2)CN(C2CCC(=O)NC2=O)C3=O)c1-c1ccc(CN2CCOCC2)cc1 (stereo not shown) [Example 214] | E (E = >25-75% remaining) | < 25 nM | ≥ 25 nM | F (F = >75-100% remaining) |
| Cc1ccc(-c2c(-c3ccc4c(c3)CN(C3CCC(=O)NC3=O)C4=O)cnn2C)s1 (stereo not shown) [Example 215] | D (D = >10- 25% remaining) | < 25 nM | ≥ 25 nM | F (F = >75-100% remaining) |
| Cn1ncc(-c2ccc3c(c2)CN(C2CCC(=O)NC2=O)C3=O)c1-c1ccc(Cl)cc1 (stereo not shown) [Example 216] | E (E = >25-75% remaining) | < 25 nM | ≥ 25 nM | F (F = >75-100% remaining) |
| CN1CCN(c2ccc(-c3c(-c4ccc5c(c4)CN(C4CCC(=O)NC4=O)C5=O)cnn3C)cc2)CC1 (stereo not shown) [Example 217] | D (D = >10- 25% remaining) | < 25 nM | ≥ 25 nM | F (F = >75-100% remaining) |
| Cn1ncc(-c2ccc3c(c2)CN(C2CCC(=O)NC2=O)C3=O)c1-c1ccc2[nH]ccc2c1 (stereo not shown) [Example 218] | D (D = >10- 25% remaining) | ≥ 25 nM | ≥ 25 nM | F (F = >75-100% remaining) |
| Cn1ncc(-c2ccc3c(c2)CN(C2CCC(=O)NC2=O)C3=O)c1-c1cccc(O)c1 (stereo not shown) [Example 219] | C (C = 0-10% remaining) | < 25 nM | ≥ 25 nM | F (F = >75-100% remaining) |
| Cn1ncc(-c2ccc3c(c2)CN(C2CCC(=O)NC2=O)C3=O)c1-c1ccc(OCCCN2CCOCC2)cc1 (stereo not shown) [Example 220] | E (E = >25-75% remaining) | < 25 nM | ≥ 25 nM | F (F = >75-100% remaining) |

| Compound | CK1α Ymin (CK1α) | DC50 (CK1α) | DC50 (GSPT1) | GSPT1 Ymin (GSPT1) |
| --- | --- | --- | --- | --- |
| Cn1ncc(-c2ccc3c(c2)CN(C2CCC(=O)NC2=O)C3=O)c1-c1ccc(S(C)(=O)=O)cc1 (stereo not shown) [Example 221] | E (E = >25-75% remaining) | ≥ 25 nM | ≥ 25 nM | F (F = >75-100% remaining) |
| COc1ccc(-c2c(-c3ccc4c(c3)CN(C3CCC(=O)NC3=O)C4=O)cnn2C)cc1O (stereo not shown) [Example 222] | C (C = 0-10% remaining) | < 25 nM | ≥ 25 nM | F (F = >75-100% remaining) |
| Cn1ncc(-c2ccc3c(c2)CN(C2CCC(=O)NC2=O)C3=O)c1-c1ccc(C#N)cc1F (stereo not shown) [Example 225] | E (E = >25-75% remaining) | ≥ 25 nM | ≥ 25 nM | F (F = >75-100% remaining) |
| Cn1cnc(-c2ccc3c(c2)CN(C2CCC(=O)NC2=O)C3=O)c1-c1ccsc1 (stereo not shown) [Example 226] | C (C = 0-10% remaining) | < 25 nM | < 25 nM | E (E = >25-75% remaining) |
| Cc1ccc(-c2c(-c3ccc4c(c3)CN(C3CCC(=O)NC3=O)C4=O)ncn2C)cc1 (stereo not shown) [Example 227] | D (D = >10- 25% remaining) | < 25 nM | < 25 nM | E (E = >25-75% remaining) |
| Cn1cnc(-c2ccc3c(c2)CN(C2CCC(=O)NC2=O)C3=O)c1-c1cccc(O)c1 (stereo not shown) [Example 228] | C (C = 0-10% remaining) | < 25 nM | ≥ 25 nM | D (D = >10- 25% remaining) |
| Cc1ccc(-c2c(-c3ccc4c(c3)CN(C3CCC(=O)NC3=O)C4=O)ncn2C)s1 (stereo not shown) [Example 229] | C (C = 0-10% remaining) | < 25 nM | < 25 nM | E (E = >25-75% remaining) |
| Cc1csc(-c2c(-c3ccc4c(c3)CN(C3CCC(=O)NC3=O)C4=O)ncn2C)c1 (stereo not shown) [Example 230] | C (C = 0-10% remaining) | < 25 nM | < 25 nM | E (E = >25-75% remaining) |
| Cc1sccc1-c1c(-c2ccc3c(c2)CN(C2CCC(=O)NC2=O)C3=O)ncn1C (stereo not shown) [Example 231] | D (D = >10- 25% remaining) | < 25 nM | ≥ 25 nM | F (F = >75-100% remaining) |
| Cn1cnc(-c2ccc3c(c2)CN(C2CCC(=O)NC2=O)C3=O)c1-c1cccc(C#N)c1 (stereo not shown) [Example 232] | D (D = >10- 25% remaining) | < 25 nM | ≥ 25 nM | F (F = >75-100% remaining) |
| Cn1cnc(-c2ccc3c(c2)CN(C2CCC(=O)NC2=O)C3=O)c1-c1ccccc1C#N (stereo not shown) [Example 233] | D (D = >10- 25% remaining) | < 25 nM | ≥ 25 nM | F (F = >75-100% remaining) |
| Cc1ccc(C)c(-c2c(-c3ccc4c(c3)CN(C3CCC(=O)NC3=O)C4=O)ncn2C)c1 (stereo not shown) [Example 234] | D (D = >10- 25% remaining) | < 25 nM | ≥ 25 nM | F (F = >75-100% remaining) |
| COc1ccccc1-c1c(-c2ccc3c(c2)CN(C2CCC(=O)NC2=O)C3=O)ncn1C (stereo not shown) [Example 235] | D (D = >10- 25% remaining) | < 25 nM | ≥ 25 nM | F (F = >75-100% remaining) |
| Cn1cnc(-c2ccc3c(c2)CN(C2CCC(=O)NC2=O)C3=O)c1-c1ccc(CO)cc1 (stereo not shown) [Example 236] | C (C = 0-10% remaining) | < 25 nM | ≥ 25 nM | E (E = >25-75% remaining) |
| Cc1ccc(F)cc1-c1c(-c2ccc3c(c2)CN(C2CCC(=O)NC2=O)C3=O)ncn1C (stereo not shown) [Example 237] | E (E = >25-75% remaining) | < 25 nM | ≥ 25 nM | F (F = >75-100% remaining) |
| Cc1cc(-c2c(-c3ccc4c(c3)CN(C3CCC(=O)NC3=O)C4=O)ncn2C)ccc1F (stereo not shown) [Example 238] | D (D = >10- 25% remaining) | < 25 nM | ≥ 25 nM | F (F = >75-100% remaining) |
| Cc1ccc(-c2c(-c3ccc4c(c3)CN(C3CCC(=O)NC3=O)C4=O)ncn2C)c(F)c1 (stereo not shown) [Example 239] | C (C = 0-10% remaining) | < 25 nM | < 25 nM | F (F = >75-100% remaining) |
